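The compound was tested at five concentrations on cells cultured in 96-well plates, with a 48-hour exposure period. Abbreviation: GI50, concentration required for 50% inhibition of growth. TGI is the concentration that stops growth completely.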
Tests used:
Test in all cases: DTP human tumour cell line panel, 48 h
HCT-116 colon = tested on: HCT-116 colon
HL-60(TB) leukemia = tested on: HL-60(TB) leukemia
OVCAR-5 ovarian = tested on: OVCAR-5 ovarian
M14 melanoma = tested on: M14 melanoma
RXF 393 renal = tested on: RXF 393 renal
K-562 leukemia = tested on: K-562 leukemia
OVCAR-3 ovarian = tested on: OVCAR-3 ovarian
SW-620 colon = tested on: SW-620 colon
DU-145 prostate = tested on: DU-145 prostate
MDA-MB-435 = tested on: MDA-MB-435

## CC(C)(C)C(=O)O[C@@H]1COC2C(O)COC21 (stereo partly specified)
HCT-116 colon
  TGI: > 100 µM
HL-60(TB) leukemia
  TGI: > 100 µM
OVCAR-5 ovarian
  TGI: > 100 µM
M14 melanoma
  TGI: > 100 µM
RXF 393 renal
  TGI: > 100 µM
K-562 leukemia
  TGI: > 100 µM
OVCAR-3 ovarian
  TGI: > 100 µM
SW-620 colon
  TGI: > 100 µM

## CCC(C(=O)[O-])C(=O)[O-].CCC(C(=O)[O-])C(=O)[O-].N.N.NCCCCCCN.[Pt+4].[Pt+4]
HCT-116 colon
  GI50: 5.59 µM
  TGI: 14 µM
HL-60(TB) leukemia
  GI50: 1.68 µM
  TGI: 4.63 µM
OVCAR-5 ovarian
  GI50: 10.7 µM
  TGI: 19.7 µM
M14 melanoma
  GI50: 6.68 µM
  TGI: 13.1 µM
RXF 393 renal
  GI50: 4.49 µM
  TGI: 10.1 µM
K-562 leukemia
  GI50: 1.79 µM
  TGI: 10.3 µM
OVCAR-3 ovarian
  GI50: 9 µM
  TGI: 16.3 µM
SW-620 colon
  GI50: 0.9 µM
  TGI: 1.71 µM

## CCCCCC/C=C\CCCCCCCCCC1=CC(=O)C=C(OC)C1=O
HCT-116 colon
  TGI: 12.2 µM
OVCAR-5 ovarian
  TGI: 17.8 µM
DU-145 prostate
  TGI: 38 µM
M14 melanoma
  TGI: 16.2 µM
RXF 393 renal
  TGI: 13.1 µM
OVCAR-3 ovarian
  TGI: 17.6 µM
SW-620 colon
  TGI: 17.5 µM
MDA-MB-435
  TGI: 13.8 µM

## Cc1cc(C)c(S(=O)(=O)ONC(=O)OC(C)(C)C)c(C)c1
HCT-116 colon
  TGI: > 100 µM
HL-60(TB) leukemia
  TGI: > 100 µM
OVCAR-5 ovarian
  TGI: > 100 µM
M14 melanoma
  TGI: > 100 µM
RXF 393 renal
  TGI: > 100 µM
K-562 leukemia
  TGI: > 100 µM
OVCAR-3 ovarian
  TGI: > 100 µM
SW-620 colon
  TGI: > 100 µM

## COc1cc([C@@H]2c3cc4c(cc3[C@@H](NC(=O)c3cccc(F)c3)C3COC(=O)[C@@H]32)OCO4)cc(OC)c1O (stereo partly specified)
HCT-116 colon
  TGI: 13.8 µM
HL-60(TB) leukemia
  TGI: 2.3 µM
OVCAR-5 ovarian
  TGI: 33 µM
M14 melanoma
  TGI: 6.72 µM
RXF 393 renal
  TGI: 37.5 µM
K-562 leukemia
  TGI: > 100 µM
OVCAR-3 ovarian
  TGI: 17.4 µM
SW-620 colon
  TGI: 16.2 µM

## CCOC(=O)Nc1ccc(-c2nc(-c3cccc(OC)c3)c(-c3ccnc(Br)c3)[nH]2)cc1
HL-60(TB) leukemia
  GI50: 2.34 µM
  TGI: 7.41 µM
OVCAR-5 ovarian
  GI50: 3.56 µM
  TGI: > 100 µM
DU-145 prostate
  GI50: 3.24 µM
  TGI: > 100 µM
M14 melanoma
  GI50: 2.4 µM
  TGI: 7.5 µM
RXF 393 renal
  GI50: 0.712 µM
  TGI: 2.94 µM
K-562 leukemia
  GI50: 2.76 µM
  TGI: > 100 µM
OVCAR-3 ovarian
  GI50: 2.82 µM
  TGI: 8.44 µM
SW-620 colon
  GI50: 3.19 µM
  TGI: > 100 µM
MDA-MB-435
  GI50: 2.73 µM
  TGI: 9.54 µM

## Nc1nnc(Cn2c(-c3ccccc3)nc3ccc(Br)cc3c2=O)s1
HCT-116 colon
  GI50: 13.6 µM
  TGI: 50.3 µM
OVCAR-5 ovarian
  GI50: > 100 µM
  TGI: > 100 µM
DU-145 prostate
  GI50: 85.4 µM
  TGI: > 100 µM
M14 melanoma
  GI50: 49 µM
  TGI: > 100 µM
OVCAR-3 ovarian
  GI50: 40 µM
  TGI: > 100 µM
SW-620 colon
  GI50: 36.1 µM
  TGI: > 100 µM
MDA-MB-435
  GI50: 45.9 µM
  TGI: > 100 µM

## COc1ccc2c(c1)CCC1=CC3(CCC12C)SCCS3 (stereo unspecified)
HL-60(TB) leukemia
  TGI: 8.36 µM
DU-145 prostate
  TGI: > 10 µM
M14 melanoma
  TGI: > 10 µM
K-562 leukemia
  TGI: > 10 µM
OVCAR-3 ovarian
  TGI: 7.71 µM
SW-620 colon
  TGI: > 10 µM
MDA-MB-435
  TGI: > 10 µM

## O=C(CC(=O)C1CCOC1=O)C(=O)Nc1ccc(Cl)cc1Cl (stereo unspecified)
HCT-116 colon
  TGI: > 100 µM
HL-60(TB) leukemia
  TGI: > 100 µM
OVCAR-5 ovarian
  TGI: > 100 µM
M14 melanoma
  TGI: > 100 µM
RXF 393 renal
  TGI: > 100 µM
K-562 leukemia
  TGI: > 100 µM
OVCAR-3 ovarian
  TGI: > 100 µM
SW-620 colon
  TGI: > 100 µM

## COc1ccc(/C(=N/NC(N)=O)C(c2ccc(OC)cc2)C2C(=O)Oc3ccccc32)cc1 (stereo unspecified)
HCT-116 colon
  TGI: > 100 µM
HL-60(TB) leukemia
  TGI: > 100 µM
OVCAR-5 ovarian
  TGI: > 100 µM
M14 melanoma
  TGI: > 100 µM
RXF 393 renal
  TGI: > 100 µM
K-562 leukemia
  TGI: > 100 µM
OVCAR-3 ovarian
  TGI: > 100 µM
SW-620 colon
  TGI: > 100 µM

## OC(c1ccccn1)C1CNc2ccccc21 (stereo unspecified)
HCT-116 colon
  TGI: > 100 µM
HL-60(TB) leukemia
  TGI: > 100 µM
OVCAR-5 ovarian
  TGI: > 100 µM
M14 melanoma
  TGI: > 100 µM
RXF 393 renal
  TGI: > 100 µM
K-562 leukemia
  TGI: > 100 µM
OVCAR-3 ovarian
  TGI: > 100 µM
SW-620 colon
  TGI: > 100 µM

## O=C1C(Cl)=C(Nc2cccc(O)c2)C(=O)N1c1ccccc1Cl
HCT-116 colon
  GI50: 20 µM
  TGI: 70.9 µM
OVCAR-5 ovarian
  GI50: 55.2 µM
  TGI: > 100 µM
DU-145 prostate
  GI50: 30.9 µM
  TGI: > 100 µM
M14 melanoma
  GI50: 21.5 µM
  TGI: > 100 µM
RXF 393 renal
  GI50: 7.87 µM
  TGI: 41.2 µM
K-562 leukemia
  GI50: 25 µM
  TGI: 63.2 µM
OVCAR-3 ovarian
  GI50: 21.5 µM
  TGI: 48.5 µM
SW-620 colon
  GI50: 52.3 µM
  TGI: > 100 µM
MDA-MB-435
  GI50: 37.2 µM
  TGI: > 100 µM

## COc1ccc(-c2c(-c3cc(OC)c4c(c3)OCO4)noc2N)cc1
HCT-116 colon
  GI50: 0.0438 µM
  TGI: 19.5 µM
HL-60(TB) leukemia
  GI50: 0.0351 µM
  TGI: 13.7 µM
OVCAR-5 ovarian
  GI50: 0.339 µM
  TGI: 99.3 µM
DU-145 prostate
  GI50: 0.041 µM
  TGI: 1.97 µM
RXF 393 renal
  GI50: 0.0167 µM
  TGI: 0.0627 µM
K-562 leukemia
  GI50: 0.0193 µM
  TGI: > 100 µM
OVCAR-3 ovarian
  GI50: 0.0203 µM
  TGI: 0.0483 µM
SW-620 colon
  GI50: 0.0289 µM
  TGI: > 100 µM
MDA-MB-435
  TGI: 0.0251 µM

## O=C(O)Cn1c(=O)[nH]c(=O)c2c1ncn2Cc1ccccc1
HCT-116 colon
  TGI: > 100 µM
OVCAR-5 ovarian
  TGI: > 100 µM
M14 melanoma
  TGI: > 100 µM
K-562 leukemia
  TGI: > 100 µM
OVCAR-3 ovarian
  TGI: > 100 µM
SW-620 colon
  TGI: > 100 µM

## CC(=O)NNc1nc(C)c(C(/C=C/c2ccc(Cl)cc2)=N/NC(=O)C[N+](C)(C)C)s1
HCT-116 colon
  TGI: > 100 µM
HL-60(TB) leukemia
  TGI: > 100 µM
OVCAR-5 ovarian
  TGI: > 100 µM
M14 melanoma
  TGI: > 100 µM
RXF 393 renal
  TGI: > 100 µM
K-562 leukemia
  TGI: > 100 µM
OVCAR-3 ovarian
  TGI: > 100 µM
SW-620 colon
  TGI: > 100 µM

## COC(=O)c1ccc(Cc2ccc(C(=O)OC)o2)o1
HCT-116 colon
  TGI: > 378 µM
HL-60(TB) leukemia
  TGI: > 378 µM
OVCAR-5 ovarian
  TGI: > 378 µM
RXF 393 renal
  TGI: > 378 µM
K-562 leukemia
  TGI: > 378 µM
OVCAR-3 ovarian
  TGI: > 378 µM
SW-620 colon
  TGI: > 378 µM

## CCC[CH2][Sn]([CH2]CCC)([O]C(=O)C1CCC(=O)N1)[O]C(=O)C1CCC(=O)N1 (stereo unspecified)
HCT-116 colon
  GI50: 0.786 µM
  TGI: 2.04 µM
HL-60(TB) leukemia
  GI50: 0.157 µM
  TGI: 0.445 µM
OVCAR-5 ovarian
  GI50: 2.05 µM
  TGI: 3.48 µM
M14 melanoma
  GI50: 0.2 µM
  TGI: 0.456 µM
RXF 393 renal
  GI50: 0.3 µM
  TGI: 0.473 µM
K-562 leukemia
  GI50: 0.138 µM
  TGI: 0.565 µM
OVCAR-3 ovarian
  GI50: 0.218 µM
  TGI: 0.663 µM
SW-620 colon
  GI50: 0.134 µM
  TGI: 0.307 µM

## Cc1ccc(C)c(NC(=O)CCc2nc(=S)[nH][nH]2)c1
HCT-116 colon
  TGI: > 100 µM
OVCAR-5 ovarian
  TGI: > 100 µM
M14 melanoma
  TGI: > 100 µM
RXF 393 renal
  TGI: > 100 µM
K-562 leukemia
  TGI: > 100 µM
OVCAR-3 ovarian
  TGI: > 100 µM
SW-620 colon
  TGI: 33 µM

## CCCCCCCCCCCCN(O)C(=O)c1ccccc1
HCT-116 colon
  TGI: > 100 µM
HL-60(TB) leukemia
  TGI: 54.8 µM
OVCAR-5 ovarian
  TGI: 82.2 µM
M14 melanoma
  TGI: 82.2 µM
RXF 393 renal
  TGI: > 100 µM
K-562 leukemia
  TGI: > 100 µM
OVCAR-3 ovarian
  TGI: > 100 µM
SW-620 colon
  TGI: > 100 µM

## COCCOCC(=O)N(CCn1ccc(NC(c2ccccc2)(c2ccccc2)c2ccccc2)nc1=O)CCn1cnc2nc(N)[nH]c(=O)c21
HCT-116 colon
  TGI: > 100 µM
HL-60(TB) leukemia
  TGI: > 100 µM
OVCAR-5 ovarian
  TGI: > 100 µM
M14 melanoma
  TGI: > 100 µM
RXF 393 renal
  TGI: > 100 µM
K-562 leukemia
  TGI: > 100 µM
OVCAR-3 ovarian
  TGI: > 100 µM
SW-620 colon
  TGI: > 100 µM
